# Laboratory results from patent US8829029B2, “Dual modulators of 5HT2A and D3 receptors” (Hoffmann-La Roche Inc., priority 2008, dated 2014).
# pKi: −log10 of the molar value.
# Key:
# [1] = target: human D3 dopamine receptor (Homo sapiens (Human), UniProt P35462); experiment: Radioligand binding ([3H]-spiperone) to cloned human D3 receptor expressed in HEK-293 EBNA cells; conditions: membranes of transfected HEK-293 EBNA cells, 0.5 nM [3H]-spiperone, 1 h at RT
# Procedure: HEK-293 EBNA cells were transiently transfected with expression plasmids encoding for the human D2 or D3 dopamine- or for the human 5-HT2A serotonin receptor, respectively. The cells were harvested 48 h post-transfection, washed three times with cold PBS and stored at −80° C. prior to use. […] After centrifugation at 48,000×g for 30 min at 4° C., the pellet was resuspended in cold 10 mM Tris-HCl buffer containing 0.1 mM EDTA (pH 7.4), homogenized, and centrifuged as above. […] The protein content of this homogenate was determined with the Bio-Rad (Bradford) Protein Assay (Biorad Laboratories GmbH, München, Germany) according to the instructions of the manufacturer using gamma globulin as the standard. This homogenate was stored at −80° C. in aliquots and thawed immediately prior to use.
# (§1) The binding affinity (Ki) of the compounds was determined using radioligand binding. Membranes were incubated in a total volume of 200 μl with a fixed concentration of radioligand (final concentration approximately 0.7 nM [^3H]-spiperone for D2, 0.5 nM [^3H]-spiperone for D3, and 1.1 nM [^3H]-ketanserin for 5-HT2A) and ten concentrations of test compound in ranging between 10 μM-0.1 nM for 1 h at RT. At the end of the incubation, the reaction mixtures were filtered on to unifilter 96-well white microplates with bonded GF/C filters (Packard BioScience, Zürich, Switzerland; preincubated for 1 h in 0.1% polyethylenimine (PEI) in assay buffer) with a Filtermate 196 harvester (Packard BioScience) and washed 3 times with cold assay buffer. The nonspecific binding was determined with equally composed reaction mixtures in the presence of 10 μM unlabelled spiperone. Per well 45 μl of Microscint 40 (Perkin Elmer, Schwerzenbach, Switzerland) was added, plates for sealed, shaken for 20 min and counted for 3 min on a Topcount Microplate Scintillation Counter (Canberra Packard SA, Zürich, Switzerland) with quenching correction.
# (§2) The CPM value for each duplicate of a concentration of competing compound was averaged (y1), then the % specific binding was calculated according to the equation (((y1−non-specific)/(total binding−non-specific))×100). Graphs were plotted with the % specific binding using XLfit, a curve fitting program that iteratively plots the data using Levenburg Marquardt algorithm. The single site competition analysis equation used was y=A+((B−A)/(1+((x/C)^D))), where y is the % specific binding, A is the minimum y, B is the maximum y, C is the IC50, x is the log10 of the concentration of the competing compound and D is the slope of the curve (the Hill Coefficient). From these curves the IC50 (inhibition concentration at which 50% specific binding of the radioligand was displaced) and Hill coefficient were determined. The affinity constant (Ki) was calculated using the Cheng-Prusoff equation Ki=(IC50/1+([L]/Kd), where [L] is the concentration of radioligand and Kd is the dissociation constant of the radioligand at the receptor as determined by the saturation isotherm.
# [2] = target: human 5-HT2A serotonin receptor (Homo sapiens (Human), UniProt P28223); experiment: Radioligand binding ([3H]-ketanserin) to cloned human 5-HT2A receptor expressed in HEK-293 EBNA cells; conditions: membranes of transfected HEK-293 EBNA cells, 1.1 nM [3H]-ketanserin, 1 h at RT
# Procedure: The ability of the compounds to bind to the 5-HT2A, D3 and D2 receptors was determined using radioligand binding to cloned receptors selectively expressed in HEK-293 EBNA cells.
# HEK-293 EBNA cells were transiently transfected with expression plasmids encoding for the human D2 or D3 dopamine- or for the human 5-HT2A serotonin receptor, respectively. The cells were harvested 48 h post-transfection, washed three times with cold PBS and stored at −80° C. prior to use. The pellet was suspended in cold 50 mM Tris-HCl buffer containing 10 mM EDTA (pH 7.4) and homogenized with a Polytron (Kinematica AG, Basel, Switzerland) for 20-30 sec at 12,000 rpm. After centrifugation at 48,000×g for 30 min at 4° C., the pellet was resuspended in cold 10 mM Tris-HCl buffer containing 0.1 mM EDTA (pH 7.4), homogenized, and centrifuged as above. This pellet was further resuspended in a smaller volume of ice cold 10 mM Tris-HCl buffer containing 0.1 mM EDTA (pH 7.4) and homogenized with a Polytron for 20-30 sec at 12,000 rpm. The protein content of this homogenate was determined with the Bio-Rad (Bradford) Protein Assay (Biorad Laboratories GmbH, München, Germany) according to the instructions of the manufacturer using gamma globulin as the standard. This homogenate was stored at −80° C. in aliquots and thawed immediately prior to use.
# Aliquots of membrane preparations were thawed at RT, resuspended in assay buffer (D2, D3: 50 mM Tris-HCl, 120 mM NaCl, 5 mM MgCl2, 1 mM EDTA, 5 mM KCl, 1.5 mM CaCl2, pH=7.4; 5-HT2A: 50 mM Tris-HCl, 10 mM MgCl2, 1 mM EGTA, pH=7.4), homogenized with a Polytron for 20-30 sec at 12,000 rpm and adjusted to a final concentration of approximately 7.5 μg protein/well (D2, D3) and 15 μg protein/well (5-HT2A), respectively.
# as §1, §2
# Chain of human D3 dopamine receptor (P35462 whole entry): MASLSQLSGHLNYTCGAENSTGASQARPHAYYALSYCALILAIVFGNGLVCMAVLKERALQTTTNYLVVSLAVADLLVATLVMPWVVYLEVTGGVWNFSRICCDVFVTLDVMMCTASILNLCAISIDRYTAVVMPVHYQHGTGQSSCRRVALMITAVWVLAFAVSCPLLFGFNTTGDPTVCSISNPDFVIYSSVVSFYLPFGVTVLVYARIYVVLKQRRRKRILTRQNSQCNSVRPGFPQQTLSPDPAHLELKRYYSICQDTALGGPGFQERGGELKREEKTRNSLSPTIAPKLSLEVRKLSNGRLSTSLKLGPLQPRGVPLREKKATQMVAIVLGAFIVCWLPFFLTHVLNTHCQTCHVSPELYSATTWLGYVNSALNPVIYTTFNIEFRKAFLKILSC
SMILES,pKi [1],pKi [2]
"O=C(N[C@H]1CC[C@H](CCN2CCC(c3noc4ccc(F)cc34)CC2)CC1)c1ccc(N2CCOCC2)cc1 [Example 25, N-trans(4-{2-[4-(5-Fluoro-benzo[d]isoxazol-3-yl)-piperidin-1-yl]-ethyl}-cyclohexyl)-4-morpholin-4-yl-benzamide]",8.04,7.65
"O=C(N[C@H]1CC[C@H](CCN2CCC(c3noc4ccc(F)cc34)CC2)CC1)c1ccc(N2CCCCC2)cc1 [Example 27, N-trans(4-{2-[4-(5-Fluoro-benzo[d]isoxazol-3-yl)-piperidin-1-yl]-ethyl}-cyclohexyl)-4-piperidin-1-yl-benzamide]",8.11,8.15
"CC1CN(c2ccc(C(=O)N[C@H]3CC[C@H](CCN4CCC(c5noc6ccc(F)cc56)CC4)CC3)cc2)CC(C)O1 (stereo partly drawn) [Example 28, 4-(2,6-Dimethyl-morpholin-4-yl)-N-trans (4-{2-[4-(5-fluoro-benzo[d]isoxazol-3-yl)-piperidin-1-yl]-ethyl}-cyclohexyl)-benzamide]",7.07,7.00
"O=C(N[C@H]1CC[C@H](CCN2CCC(c3noc4ccc(F)cc34)CC2)CC1)c1ccc(N2CCS(=O)(=O)CC2)cc1 [Example 29, 4-(1,1-Dioxo-1,6,4-thiomorpholin-4-yl)-N trans-(4-{2-[4-(5-fluoro-benzo[d]isoxazol-3-yl)-piperidin-1-yl]-ethyl}-cyclohexyl)-benzamide]",8.23,7.91
"COCCC(=O)N[C@H]1CC[C@H](CCN2CCC(c3noc4cc(Cl)ccc34)CC2)CC1 [Example 32, N-trans(4-{2-[4-(6-Chloro-benzo[d]isoxazol-3-yl)-piperidin-1-yl]-ethyl}-cyclohexyl)-3-methoxy-propionamide]",8.07,7.78
"O=C(N[C@H]1CC[C@H](CCN2CCC(c3noc4cc(Cl)ccc34)CC2)CC1)C(O)C(F)(F)F (stereo partly drawn) [Example 33, N-trans-(4-{2-[4-(6-Chloro-benzo[d]isoxazol-3-yl)-piperidin-1-yl]-ethyl}-cyclohexyl)-3,3,3-trifluoro-2-hydroxy-propionamide]",7.96,7.66
"O=C(CC1CCC2(CC1)OCCO2)N[C@H]1CC[C@H](CCN2CCC(c3noc4cc(Cl)ccc34)CC2)CC1 [Example 36, N-trans (4-{2-[4-(6-Chloro-benzo[d]isoxazol-3-yl)-piperidin-1-yl]-ethyl}-cyclohexyl)-2-(1,4-dioxa-spiro[4.5]dec-8-yl)-acetamide]",7.91,8.08
"COC(CC(=O)N[C@H]1CC[C@H](CCN2CCC(c3noc4cc(Cl)ccc34)CC2)CC1)OC [Example 37, N-trans-(4-{2-[4-(6-Chloro-benzo[d]isoxazol-3-yl)-piperidin-1-yl]-ethyl}-cyclohexyl)-3,3-dimethoxy-propionamide]",8.04,7.86
"O=C(CC1CCCO1)N[C@H]1CC[C@H](CCN2CCC(c3noc4cc(Cl)ccc34)CC2)CC1 (stereo partly drawn) [Example 38, N-trans-(4-{2-[4-(6-Chloro-benzo[d]isoxazol-3-yl)-piperidin-1-yl]-ethyl}-cyclohexyl)-2-(tetrahydro-furan-2-yl)-acetamide]",8.05,7.89
"C[C@@H](O)CC(=O)N[C@H]1CC[C@H](CCN2CCC(c3noc4cc(Cl)ccc34)CC2)CC1 [Example 39, (R)-N-trans (4-{2-[4-(6-Chloro-benzo[d]isoxazol-3-yl)-piperidin-1-yl]-ethyl}-cyclohexyl)-3-hydroxy-butyramide]",7.77,7.89
"CC1(C)OC[C@H](CC(=O)N[C@H]2CC[C@H](CCN3CCC(c4noc5cc(Cl)ccc45)CC3)CC2)O1 [Example 40, N-trans (4-{2-[4-(6-Chloro-benzo[d]isoxazol-3-yl)-piperidin-1-yl]-ethyl}-cyclohexyl)-2-((S)-2,2-dimethyl-[1,3]dioxolan-4-yl)-acetamide]",8.22,7.60
"CO[C@H]1CC[C@H](CC(=O)N[C@H]2CC[C@H](CCN3CCC(c4noc5cc(Cl)ccc45)CC3)CC2)C1 [Example 41, N-trans (4-{2-[4-(6-Chloro-benzo[d]isoxazol-3-yl)-piperidin-1-yl]-ethyl}-cyclohexyl)-2-((1S,3S)-3-methoxy-cyclopentyl)-acetamide]",8.00,7.85
"COC1(C)CCC(CC(=O)N[C@H]2CC[C@H](CCN3CCC(c4noc5cc(Cl)ccc45)CC3)CC2)CC1 (stereo partly drawn) [Example 42, N-trans(4-{2-[4-(6-Chloro-benzo[d]isoxazol-3-yl)-piperidin-1-yl]-ethyl}-cyclohexyl)-2-(4-methoxy-4-methyl-cyclohexyl)-acetamide]",8.10,7.72
"CO[C@]1(C)CC[C@@H](CC(=O)N[C@H]2CC[C@H](CCN3CCC(c4noc5cc(Cl)ccc45)CC3)CC2)CC1 [Example 42A, N-trans(4-{2-[4-(6-Chloro-benzo[d]isoxazol-3-yl)-piperidin-1-yl]-ethyl}-cyclohexyl)-2-(4-trans-methoxy-4-methyl-cyclohexyl)-acetamide]",8.22,7.80
"CO[C@]1(C)CC[C@H](CC(=O)N[C@H]2CC[C@H](CCN3CCC(c4noc5cc(Cl)ccc45)CC3)CC2)CC1 [Example 42B, N-trans(4-{2-[4-(6-Chloro-benzo[d]isoxazol-3-yl)-piperidin-1-yl]-ethyl}-cyclohexyl)-2-(4-cis-methoxy-4-methyl-cyclohexyl)-acetamide]",8.40,7.85
"COC(C)CC(=O)N[C@H]1CC[C@H](CCN2CCC(c3noc4cc(Cl)ccc34)CC2)CC1 (stereo partly drawn) [Example 43, N-trans(4-{2-[4-(6-Chloro-benzo[d]isoxazol-3-yl)-piperidin-1-yl]-ethyl}-cyclohexyl)-3-methoxy-butyramide]",8.00,7.89
"CO[C@H](C)CC(=O)N[C@H]1CC[C@H](CCN2CCC(c3noc4cc(Cl)ccc34)CC2)CC1 [Example 43A, (R)—N-trans(4-{2-[4-(6-Chloro-benzo[d]isoxazol-3-yl)-piperidin-1-yl]-ethyl}-cyclohexyl)-3-methoxy-butyramide]",7.82,7.80
"CO[C@@H](C)CC(=O)N[C@H]1CC[C@H](CCN2CCC(c3noc4cc(Cl)ccc34)CC2)CC1 [Example 43B, (S)—N-(4-{2-[4-(6-Chloro-benzo[d]isoxazol-3-yl)-piperidin-1-yl]-ethyl}-cyclohexyl)-3-methoxy-butyramide]",8.22,7.80
"COC[C@H]1CC[C@H](CC(=O)N[C@H]2CC[C@H](CCN3CCC(c4noc5cc(Cl)ccc45)CC3)CC2)CC1 [Example 44, N-trans-(4-{2-[4-(6-Chloro-benzo[d]isoxazol-3-yl)-piperidin-1-yl]-ethyl}-cyclohexyl)-2-trans (4-methoxymethyl-cyclohexyl)-acetamide]",8.05,7.72
